In ChEMBL document CHEMBL1150444, “A new class of diacidic nonpeptide angiotensin II receptor antagonists” (Bioorg Med Chem Lett, 1994):
Blank lines part the entries; values can stand above or below the molecule they belong to.

Assays:
[1] = biological target: T1, Type-1 angiotensin II receptor (Bos taurus, UniProt P25104); assay: Concentration required to inhibit [125I]AII binding to Angiotensin II receptor from membrane fractions of bovine adrenal cortex; assay type: tissue-based
T1 sequence (P25104 whole entry): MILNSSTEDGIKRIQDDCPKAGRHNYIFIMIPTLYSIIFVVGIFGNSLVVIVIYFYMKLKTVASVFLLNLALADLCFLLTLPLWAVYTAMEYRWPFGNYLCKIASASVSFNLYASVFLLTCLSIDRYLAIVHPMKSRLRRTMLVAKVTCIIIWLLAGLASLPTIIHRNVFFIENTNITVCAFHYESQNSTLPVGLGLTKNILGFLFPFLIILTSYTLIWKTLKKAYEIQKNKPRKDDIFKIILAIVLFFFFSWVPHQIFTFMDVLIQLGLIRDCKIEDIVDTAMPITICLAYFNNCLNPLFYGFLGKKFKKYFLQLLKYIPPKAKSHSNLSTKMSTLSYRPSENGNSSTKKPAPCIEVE

[2] = organism: Oryctolagus cuniculus; assay: In vitro inhibition of contraction of rabbit aorta strips measured as pD2 calculated by the method of Van Rossum; assay type: functional
[3] = organism: Oryctolagus cuniculus; assay: Percent response at a dose of 8M on AII induced contraction in isolated rabbit aorta, expressed as percent of maximal response; assay type: functional
[4] = organism: Oryctolagus cuniculus; assay: Percent response at a dose of 9M on AII induced contraction in isolated rabbit aorta, expressed as percent of maximal response; assay type: functional
[5] = organism: Oryctolagus cuniculus; assay: In vitro inhibition of contraction of rabbit aorta strips measured as pA2 calculated by the method of Van Rossum; assay type: functional; settings: read-out: pA2 (converted)
[6] = system: Rattus norvegicus; assay: Inhibitory effect at a dose of 1mg/gk, po on AII induced pressor response at a dose of 100ng/kg, iv in conscious normotensive rats; assay type: functional
[7] = organism: Oryctolagus cuniculus; assay: Percent response at a dose of […] on AII induced contraction in isolated rabbit aorta, expressed as percent of maximal response; assay type: functional

Structure (SMILES): CCCCc1nc2c(C)cnc(C(=O)O)c2n1Cc1ccc(-c2ccccc2-c2nn[nH]n2)cc1
IC50 [1]: 36 nM
pD2 [2]: 9.16

Structure (SMILES): CCSc1nc2c(C)scc2n1Cc1ccc(-c2ccccc2-c2nn[nH]n2)cc1
IC50 [1]: 1200 nM
Response [3]: 85%
Response [4]: 85%
Kb [5]: 5.5 nM
Inhibition [6]: 18%

Structure (SMILES): CCOc1nc2cccc(C(=O)O)c2n1Cc1ccc(-c2ccccc2-c2nnn[nH]2)cc1 [CANDESARTAN]
pD2 [2]: 9.97

Structure (SMILES): CCCCc1nc2c(C)cncc2n1Cc1ccc(-c2ccccc2-c2nnn[nH]2)cc1
IC50 [1]: 54 nM
Kb [5]: 12 nM

Second part, led by results:

IC50 [1]: 48 nM
Structure (SMILES): CCCc1cn2ncc(C(=O)O)c2n1Cc1ccc(-c2ccccc2-c2nn[nH]n2)cc1
pD2 [2]: 9.58

IC50 [1]: 500 nM
Structure (SMILES): CCSc1nc2c(C)sc(C(=O)O)c2n1Cc1ccc(-c2ccccc2-c2nn[nH]n2)cc1
Response [7]: 65%
Response [4]: 25%
pD2 [2]: 9.65
Inhibition [6]: 100%

IC50 [1]: 390 nM
Structure (SMILES): CCOc1nc2ccccc2n1Cc1ccc(-c2ccccc2-c2nnn[nH]2)cc1
Kb [5]: 11.7 nM

IC50 [1]: 3300 nM
Structure (SMILES): CCCc1cn2nccc2n1Cc1ccc(-c2ccccc2-c2nn[nH]n2)cc1
Kb [5]: 57.5 nM
